Publication PMC7470102, “Synthesis, anticancer evaluation and molecular docking studies of new benzimidazole- 1,3,4-oxadiazole derivatives as human topoisomerase types I poison” (Journal of Enzyme Inhibition and Medicinal Chemistry, 2020)

Tests used:
[1] = system: NIH3T3 (mouse embryo fibroblast cell line); test: MTT cytotoxicity assay, NIH3T3 healthy cells; type: cell-based; details: Mus musculus, read-out: IC50 against NIH3T3
Experimental: (§1) The anticancer activity of compounds 5a–5o were screened according to the MTT assays. The MTT assays were performed as previously described[32]^,[33]. Anticancer activity of final compounds was assessed against five different cancer cell lines A549 (lung carcinoma cell line), HeLa (cervical cell line), MCF-7 (human breast adenocarcinoma cell line), HepG2 (human liver carcinoma cell line) and C6 (rat glioma cell line) cell lines as well as NIH3T3 (mouse embryo fibroblast cell line). Doxorubicin and Hoechst 33342 were used as the reference drugs in the MTT assays. It is crucial that an anticancer agent affects the cancer cell line but having minimal or no side-effect on healthy cells. For this purpose, the cytotoxic effects of the active compounds on the NIH3T3 cell line were investigated (Table 2).

[2] = system: HepG2 (human liver carcinoma cell line); test: MTT cytotoxicity assay, HepG2; type: cell-based; details: Homo sapiens, read-out: IC50 against HepG2
Experimental: as §1, with “assays.” for “assays. It is crucial that an anticancer agent affects the cancer cell line but having minimal or no side-effect on healthy cells. For this purpose, the cytotoxic effects of the active compounds on the NIH3T3 cell line were investigated (Table 2).”
(§2) The benzimidazole-1,3,4-oxadiazole derivatives (5a-5o) were tested their cytotoxic effects in vitro using five cancer cell line A549 (lung carcinoma cell line), HeLa (cervical cell line), MCF-7 (human breast adenocarcinoma cell line), HepG2 (human liver carcinoma cell line) and C6 (rat glioma cell line) cell lines as well as NIH3T3 (mouse embryo fibroblast cell line). Doxorubicin and Hoechst 33342 were used for this study as a reference drugs.

[3] = system: C6 (rat glioma cell line); test: MTT cytotoxicity assay, C6; type: cell-based; details: Rattus norvegicus, read-out: IC50 against C6
Experimental: as §1, with “assays.” for “assays. It is crucial that an anticancer agent affects the cancer cell line but having minimal or no side-effect on healthy cells. For this purpose, the cytotoxic effects of the active compounds on the NIH3T3 cell line were investigated (Table 2).”
as §2

[4] = system: HeLa (cervical cell line); test: MTT cytotoxicity assay, HeLa; type: cell-based; details: Homo sapiens, read-out: IC50 against HeLa
Experimental: as §1, with “assays.” for “assays. It is crucial that an anticancer agent affects the cancer cell line but having minimal or no side-effect on healthy cells. For this purpose, the cytotoxic effects of the active compounds on the NIH3T3 cell line were investigated (Table 2).”
as §2

[5] = system: A549 (lung carcinoma cell line); test: MTT cytotoxicity assay, A549; type: cell-based; details: Homo sapiens, A549, MTT assay, read-out: IC50 against A549
Experimental: as §1, with “assays.” for “assays. It is crucial that an anticancer agent affects the cancer cell line but having minimal or no side-effect on healthy cells. For this purpose, the cytotoxic effects of the active compounds on the NIH3T3 cell line were investigated (Table 2).”
as §2

[6] = system: MCF-7 (human breast adenocarcinoma cell line); test: MTT cytotoxicity assay, MCF-7; type: cell-based; details: Homo sapiens, MCF7, MCF-7 cell line, read-out: IC50 against MCF-7
Experimental: as §1, with “assays.” for “assays. It is crucial that an anticancer agent affects the cancer cell line but having minimal or no side-effect on healthy cells. For this purpose, the cytotoxic effects of the active compounds on the NIH3T3 cell line were investigated (Table 2).”
as §2

Topoisomerase I = target: T1, Topoisomerase I (Homo sapiens, UniProt P11387); test: DNA topoisomerase I assay (relaxation of supercoiled plasmid DNA, agarose gel); type: biochemical; details: agarose gel electrophoresis, camptothecin positive control, Figure 12
T1 construct: purchased TopoGen TG1018-2
T1 sequence (P11387 1-765): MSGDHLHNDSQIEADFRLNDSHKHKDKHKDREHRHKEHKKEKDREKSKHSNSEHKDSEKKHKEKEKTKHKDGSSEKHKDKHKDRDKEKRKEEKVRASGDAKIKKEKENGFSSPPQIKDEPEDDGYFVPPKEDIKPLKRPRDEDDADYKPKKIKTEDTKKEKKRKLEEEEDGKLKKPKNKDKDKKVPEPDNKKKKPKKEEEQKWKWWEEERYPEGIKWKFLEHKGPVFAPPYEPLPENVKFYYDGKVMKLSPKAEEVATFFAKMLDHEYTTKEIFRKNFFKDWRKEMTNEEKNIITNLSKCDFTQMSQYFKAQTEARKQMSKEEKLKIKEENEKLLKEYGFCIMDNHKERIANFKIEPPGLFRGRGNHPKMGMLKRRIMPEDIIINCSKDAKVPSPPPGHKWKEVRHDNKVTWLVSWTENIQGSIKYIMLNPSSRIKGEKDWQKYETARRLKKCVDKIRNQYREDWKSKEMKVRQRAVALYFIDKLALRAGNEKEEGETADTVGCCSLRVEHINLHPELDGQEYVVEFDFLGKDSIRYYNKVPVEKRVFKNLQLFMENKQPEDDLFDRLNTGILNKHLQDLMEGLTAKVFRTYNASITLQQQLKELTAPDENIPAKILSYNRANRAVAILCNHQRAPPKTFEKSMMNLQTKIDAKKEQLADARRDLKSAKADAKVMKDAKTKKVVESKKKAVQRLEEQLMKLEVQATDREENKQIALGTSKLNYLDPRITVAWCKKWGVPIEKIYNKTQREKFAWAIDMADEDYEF
Experimental: The topoisomerase I inhibition activities of final compounds were measured as relaxation of supercoiled plasmid DNA using agarose gel electrophoresis and camptothecin was used as a positive control. The assay was carried out in a final volume of 20 µl reaction volume containing 2 µl of 10xTGS Buffer, 6 µl water, 2 µl supercoiled plasmid DNA, 2 µl test compound, 2 µl of Top1, 2 ul 10% SDS, 2 µl proteinase K, 2 µl DNA loading dye. After incubation of reaction mixtures at 37 °C for 30 min, electrophoresis was done on a 1% agarose gel at a potential 50 V for 75 min using 1xTAE buffer.
To determine whether the DNA intercalation properties of compounds 5a, 5b, 5d, 5e, 5k, 5l, 5n and 5o might result in Topo I inhibition, agarose gel electrophores is assay was performed to evaluate the Topo I inhibitory activity of them via agarose-gel electrophoresis and CPT was used as the positive control. The TopoGEN Topoisomerase I Drug Screening Kit were optimised and implemented to accomplish this goal.
In a previous studies, it was said that the compounds poisoning topoisomerase caused the formation of nick bands in such gel appearances, while the formation of Supercoiled bands was said to be caused by catalytic inhibitors that bound to either DNA or enzyme[40]^,[41].

MCF-7 cell line = test: Flow cytometric analysis (Annexin V/PI), MCF-7; type: cell-based, human; details: MCF-7 cells
Experimental: Death pathway of the carcinogenic cell lines was detected by Annexin V-FITC Apoptosis Detection Kit (BD, Pharmingen) as reported previously described. […] FCS Express software was used to display the percent of normal and apoptotic cells at different stages. […] The experiments were carried out in triplicates.
Annexin V/PI staining on tested cancer cells treated with the active compounds was performed to investigate induction of apoptosis. […] According to the MTT assay, compound 5n for A549 cell line; compounds 5a, 5d, 5e, 5o for MCF-7 cell line; compound 5k for C6 cell line; compound 5a for HepG2 cell line; compounds 5b, 5l and 5n for HeLa cell line were selected for the flow cytometric analysis. Furthermore, flow cytometry studies were performed for reference drug doxorubicin. Flow cytometric analysis diagrams of tested compounds and doxorubicin at IC50/2, IC50, and 2xIC50 concentrations on cancer cells were presented in Figures 7–11.

Row | melting point | Topo I inhibition activity (Topoisomerase I) | Compound | IC50 [1] | IC50 [2] | IC50 [3] | IC50 [4] | IC50 [5] | IC50 [6] | percentage of apoptosis (early + late apoptotic cells) (MCF-7 cell line)
1 | 271.1 to 273.4 °C |  | O=C(CSc1nnc(-c2ccc3nc(-c4ccc(O)cc4)[nH]c3c2)o1)N1CCN(c2ccccc2)CC1 [5c, 2-((5–(2-(4-Hydroxyphenyl)-1H-benzo[d]imidazol-6-yl)-1,3,4-oxadiazol-2-yl)thio)-1–(4-(phenyl) -piperazin-1-yl) -ethane-1-on] | 44.56 ± 0.221 µM | 21.9 ± 0.991 µM | ≥ 100 µM | 20.3 ± 1.1 µM | ≥ 100 µM | ≥ 100 µM | 
2 |  | potent topo I inhibition activity | O=C(CSc1nnc(-c2ccc3nc(-c4ccc(O)cc4)[nH]c3c2)o1)N1CCN(c2ccccn2)CC1 [5d, 2-((5-(2-(4-Hydroxyphenyl)-1H-benzo[d]imidazol-6-yl)-1,3,4-oxadiazol-2-yl)thio)-1-(4-(pyridin-2-yl)-piperazin-1-yl)-ethane-1-on] | 720.6 ± 5.03 µM | ≥ 100 µM | 38.9 ± 1.92 µM | ≥ 100 µM |  | 9.15 ± 0.391 µM | 22.3%
3 | 156.6 to 158.7 °C |  | COc1ccc(-c2nc3ccc(-c4nnc(SCC(=O)N5CCN(C)CC5)o4)cc3[nH]2)cc1 [5f, 2-((5-(2-(4-Methoxyphenyl)-1H-benzo[d]imidazol-6-yl)-1,3,4-oxadiazol-2-yl)thio)-1–(4-methyl-piperazin-1-yl)-ethane-1-on] |  | ≥ 100 µM | ≥ 100 µM | ≥ 100 µM | ≥ 100 µM | ≥ 100 µM | 
4 | 180.4 to 181.9 °C |  | CCN1CCN(C(=O)CSc2nnc(-c3ccc4nc(-c5ccc(OC)cc5)[nH]c4c3)o2)CC1 [5g, 2-((5-(2-(4-Methoxyphenyl)-1H-benzo[d]imidazol-6-yl)-1,3,4-oxadiazol-2-yl)thio)-1–(4-ethyl-piperazin-1-yl)-ethane-1-on] |  | ≥ 100 µM | ≥ 100 µM | ≥ 100 µM | ≥ 100 µM | ≥ 100 µM | 
5 | 166.7 to 169.2 °C |  | COc1ccc(-c2nc3ccc(-c4nnc(SCC(=O)N5CCN(c6ccccc6)CC5)o4)cc3[nH]2)cc1 [5h, 2-((5-(2-(4-Methoxyphenyl)-1H-benzo[d]imidazol-6-yl)-1,3,4-oxadiazol-2-yl)thio)-1–(4-(phenyl)-piperazin-1-yl)-ethane-1-on] |  | ≥ 100 µM | ≥ 100 µM | ≥ 100 µM | ≥ 100 µM | ≥ 100 µM | 
6 | 118.7 to 120.3 °C |  | COc1ccc(-c2nc3ccc(-c4nnc(SCC(=O)N5CCN(c6ncccn6)CC5)o4)cc3[nH]2)cc1 [5j, 2-((5-(2-(4-Methoxyphenyl)-1H-benzo[d]imidazol-6-yl)-1,3,4-oxadiazol-2-yl)thio)-1–(4-(pyrimidin-2-yl)-piperazin-1-yl)-ethane-1-on] |  | ≥ 100 µM | ≥ 100 µM | ≥ 100 µM | ≥ 100 µM | ≥ 100 µM | 
7 | 262.5 to 263.9 °C |  | CCOc1ccc(-c2nc3ccc(-c4nnc(SCC(=O)N5CCN(c6ccccc6)CC5)o4)cc3[nH]2)cc1 [5m, 2-((5-(2-(4-Ethoxyphenyl)-1H-benzo [d]imidazol-6-yl)-1,3,4-oxadiazol-2-yl)thio)-1–(4-(phenyl)-piperazin-1-yl)-ethane-1-on] | 52.3 ± 2.51 µM | ≥ 100 µM | 32.2 ± 1.55 µM | ≥ 100 µM | ≥ 100 µM | ≥ 100 µM | 
8 |  | potent topo I inhibition activity | CCOc1ccc(-c2nc3ccc(-c4nnc(SCC(=O)N5CCN(c6ncccn6)CC5)o4)cc3[nH]2)cc1 [5o, 2-((5-(2-(4-Ethoxyphenyl)-1H-benzo[d]imidazol-6-yl)-1,3,4-oxadiazol-2-yl)thio)-1–(4-(pyrimidine-2-yl)-piperazin-1-yl)-ethane-1-on] | 44.1 ± 2.1 µM | 59.4 ± 2.59 µM | 25 ± 1.24 µM | ≥ 100 µM |  | 6.44 ± 0.287 µM | 8.7%
9 | 168.3 to 170.1 °C |  | COc1ccc(-c2nc3ccc(-c4nnc(SCC(=O)N5CCN(c6ccccn6)CC5)o4)cc3[nH]2)cc1 [5ı, 2-((5-(2-(4-Methoxyphenyl)-1H-benzo[d]imidazol-6-yl)-1,3,4-oxadiazol-2-yl)thio)-1–(4-(pyridin-2-yl)-piperazin-1-yl)-ethane-1-on] |  | ≥ 100 µM | ≥ 100 µM | ≥ 100 µM | ≥ 100 µM | ≥ 100 µM | 
10 |  |  | CCOc1ccc(-c2nc3ccc(-c4nc5cc(N6CCN(C)CC6)ccc5[nH]4)cc3[nH]2)cc1 [Hoechst 33342, reference compound] | 7.39 ± 0.269 µM | 27.8 ± 1.19 µM |  | 0.306 ± 0.015 µM |  | 2.4 ± 0.118 µM | 
